From publication PMC6788984, “High-potency ligands for DREADD imaging and activation in rodents and monkeys” (Nature Communications, 2019)
pEC50, pKi: −log10 of the molar value. Where “and” joins values, the source holds several entries; their conditions need not be identical. Identical values can stand only once.

How the values were obtained:
hM4Di [1] = molecular target: T1, hM4Di (Homo sapiens, UniProt P08173, A203G/Y113C); assay: BRET Galpha-o1 protein activation assay in HEK-293 cells transfected with hM4Di; type: cell-based; parameters: host or cells: HEK-293; settings: BRET-based assay in HEK-293 cells
T1 sequence (P08173 1-479 Y113C/A203G): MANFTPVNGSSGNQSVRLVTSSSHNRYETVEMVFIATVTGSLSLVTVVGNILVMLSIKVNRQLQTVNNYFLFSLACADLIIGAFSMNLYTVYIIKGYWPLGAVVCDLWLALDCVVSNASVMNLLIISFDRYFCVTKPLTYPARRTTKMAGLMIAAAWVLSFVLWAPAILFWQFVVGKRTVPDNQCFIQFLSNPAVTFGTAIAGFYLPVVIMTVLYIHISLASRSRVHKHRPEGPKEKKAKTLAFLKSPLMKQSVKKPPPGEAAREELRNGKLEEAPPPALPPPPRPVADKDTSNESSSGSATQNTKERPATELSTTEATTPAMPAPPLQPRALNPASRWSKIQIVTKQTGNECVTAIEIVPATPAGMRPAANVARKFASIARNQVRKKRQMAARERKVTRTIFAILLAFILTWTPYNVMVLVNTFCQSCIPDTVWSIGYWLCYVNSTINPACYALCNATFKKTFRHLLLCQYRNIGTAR
Method: The indicated amount of cDNA was transfected into HEK-293 cells using polyethylenimine (PEI; Sigma-Aldrich) in a 1–2 DNA:PEI ratio. Cell harvesting for radioligand binding experiments or signaling assays were performed approximately 48 h after transfection.
BRET assays were performed to detect receptor ligand-induced Gαo1 protein activation. […] Forty-eight hour after transfection cells were harvested, washed and resuspended in phosphate-buffered saline (PBS). Approximately, 200,000 cells/well were distributed in 96-well plates, and 5 µM Coelenterazine H (substrate for luciferase) was added to each well. Five minutes after addition of Coelenterazine H, ligands were added to each well. […] Results were calculated for the BRET change (BRET ratio for the corresponding drug minus BRET ratio in the absence of the drug) 5 min after the addition of the ligands.

hM4Di [2] = molecular target: T1, hM4Di; assay: [3H]clozapine competition binding, membranes of HEK-293 cells expressing hM4Di
Method: (§1) Cells were routinely tested for myclopasma contamination (MycoAlert® Mycoplasma Detection Kit, Lonza). Cells were seeded on 60 cm^2 dishes at 4 × 10^6 cells/dish 24 h before transfection. The indicated amount of cDNA was transfected into HEK-293 cells using polyethylenimine (PEI; Sigma-Aldrich) in a 1–2 DNA:PEI ratio. Cell harvesting for radioligand binding experiments or signaling assays were performed approximately 48 h after transfection.
(§2) Cells were suspended in Tris-HCl 50 mM pH 7.4 supplemented with protease inhibitor cocktail (1:100, Sigma-Aldrich, St. Louis, MO, USA). The dissected brain tissue was diluted in Tris-HCl 50 mM buffer supplemented with protease inhibitor cocktail (1:1000). HEK-293 cells or brain tissue were disrupted with a Polytron homogenizer (Kinematica, Basel, Switzerland). Homogenates were centrifuged at 48,000g (50 min, 4 °C) and washed twice in the same conditions to isolate the membrane fraction. Protein was quantified by the bicinchoninic acid method (Pierce). […] In all cases, free and membrane-bound radioligand were separated by rapid filtration of 500-μl aliquots in a 96-well plate harvester (Brandel, Gaithersburg, MD, USA) and washed with 2 ml of ice-cold Tris-HCl buffer. […] One-site competition curves were fitted using Prism 7 (GraphPad Software, La Jolla, CA, USA). Ki values were calculated using the Cheng–Prusoff equation.

hM3Dq [3] = molecular target: T2, hM3Dq (Homo sapiens, UniProt P20309, A239G/Y149C); assay: [3H]clozapine competition binding, membranes of HEK-293 cells expressing hM3Dq
Method: as §1, §2

hM3Dq [4] = molecular target: T2, hM3Dq; assay: Locomotor activity in TH-hM3Dq rats; type: in vivo, rat; parameters: host or cells: TH-expressing neurons of the ventral tegmental area in TH:Cre rats (AAV transduction, in vivo); settings: for hM3Dq-stimulated locomotion: TH-hM3Dq rats, 0.01-0.3 mg kg-1
Method: Tyrosine hydroxylase (TH):Cre rats (n = 9; founder, K. Deisseroth lab) or WT littermates (n = 9) were bilaterally injected with AAV2 hSyn-DIO-hM3Dq-mCherry (1ul/hemisphere, Addgene), and allowed to recover for 2 + weeks. […] Vehicle was administered on 2 separate days, and average locomotion was used for comparison with DREADD agonists. Cohort 2 underwent the same procedures, but with a 4 h testing session, and the following IP injections: vehicle (x2), JHU37152 (0.01–0.3 mg kg^−1), JHU37160 (0.01–0.3 mg kg^−1). All drugs were dissolved in 5% DMSO in saline, and injected 1 ml kg^−1.

WT mice = assay: Locomotor activity in WT mice; settings: WT mice; for locomotor activity: 0.01 to 1 mg kg-1
Text: (§3) Wild-type mice (C57BL/6J) were ordered from Jackson Laboratories and rats (Sprague–Dawley) were ordered from Charles River. Rodents were male and ordered at ~6 weeks of age. Transgenic mice were bred at NIDA breeding facility. […] Three male rhesus monkeys (Macaca mulatta) weighed 8–12 kg. All experiments and procedures complied with all relevant ethical regulations for animal testing and research and followed NIH guidelines and were approved by each institute’s animal care and use committees.
(§4) Ten minutes after injection, animals were placed in an open field arena (Opto-varimex ATM3, Columbus Instruments) and their locomotor activity was tracked during 60 min as infrared beam crossings and traveled distance was converted to cm. Animals were repeatedly tested on consecutive sessions (after an initial habituation session with no drug treatment) in a counterbalanced design.

hM3Dq [5] = molecular target: T2, hM3Dq; settings: D1-hM3Dq mice, 0.01 to 1 mg kg-1
Text: as §3, §4

P-gp = molecular target: T3, P-gp (Homo sapiens, UniProt P08183); assay: P-glycoprotein (P-gp) substrate assay in Caco-2 cells with and without verapamil; type: in vitro ADME; settings: Caco-2, efflux ratio with/without verapamil
T3 construct: host or cells: Caco-2
Method: These experiments were performed by an outside vendor (Eurofins, France). C21 was tested in P-gp substrate assessment assays at 10 µM. The A to B and B to A permeability was measured in Caco-2 cells in the presence and absence of verapamil, a P-gp inhibitor. Efflux ratios (E) were calculated based on the apparent B–A and A–B permeability with and without verapamil. In each experiment, the respective reference compound was tested concurrently with the test compound to assess the assay reliability. Fluorescein was used as the cell monolayer integrity marker. Fluorescein permeability assessment (in the A–B direction at pH 7.4 on both sides) was performed after the permeability assay for the test compound.

striatal DREADDs = assay: [11C]clozapine PET DREADD occupancy in AAV-DREADD mice; settings: 0.1 mg kg-1 IP
Method: Animals were anesthetized with isoflurane or a mix of ketamine/xylazine and prepped on a stereotaxic apparatus (Kopf, Germany). […] When indicated, animals were pretreated with vehicle or the indicated drug 10 min before the injection of the PET radiotracer. Total acquisition time was 60 min.
In all cases, the PET data were reconstructed and corrected for dead-time and radioactive decay. All qualitative and quantitative assessments of PET images were performed using the PMOD software environment (PMOD Technologies, Zurich Switzerland). Binding potential BPND (a relative measure of specific binding) was calculated using a reference tissue model using the cerebellum as a reference tissue in rodents. In macaques, the kinetic data were fitted to a two-tissue compartment model and the concentration of parent in plasma was used as an input function, then the volume of distribution ratios compared to cerebellum were calculated to establish BPND. In all cases, the dynamic PET images were coregistered to MRI templates and time-activity curves were generated using predefined volumes of interest (macaques) or manually drawn in rodents and the described analyses were performed. Receptor occupancy was calculated using the formula: occupancy = (BPND^0 − BPND^Drug)/BPND^0 × 100, where BPND^0 is the binding potential of the baseline condition and BPND^Drug the binding potential when the animals were pretreated with the drug.

hM3Dq [6] = molecular target: T2, hM3Dq; assay: Autoradiography: displacement of [3H]clozapine from hM3Dq in mouse brain sections; type: binding; parameters: 026220; host or cells: mouse brain, dopamine D1 receptor-expressing neurons (transgene); settings: hM3Dq and hM4Di; up to 10 nM
Text: Flash frozen tissue (both rodents and the monkey) was sectioned (20 µm) on a cryostat (Leica, Germany) and thaw mounted onto ethanol-washed glass slides. […] Slides were air dried and placed in a Hypercassette™ (Amersham Biosciences) and covered with a BAS-TR2025 Storage Phosphor Screen (FujiFilm, Japan). The slides were exposed to the screen for 5–7 days and imaged using a phosphor imager (Typhoon FLA 7000; GE Healthcare).

5-HT receptors = assay: Binding and enzyme target profile screen (Eurofins); settings: competitive binding screen
Method: These experiments were performed by an outside vendor (Eurofins, France). […] In each experiment, the respective reference compound was tested concurrently with the test compound to assess the assay reliability. […] Following incubation, the samples were filtered rapidly under vacuum through glass fiber filters presoaked in a buffer and rinsed several times with an ice-cold buffer using a 48-sample or 96-sample cell harvester. The filters were counted for radioactivity in a scintillation counter using a scintillation cocktail.

hM4Di [7] = molecular target: T1, hM4Di; assay: Locomotor activity in D1-hM4Di mice; settings: for locomotor activity: D1-hM4Di mice, 0.01 to 1 mg kg-1
Text: as §3, §4

T3 sequence (P08183 whole entry): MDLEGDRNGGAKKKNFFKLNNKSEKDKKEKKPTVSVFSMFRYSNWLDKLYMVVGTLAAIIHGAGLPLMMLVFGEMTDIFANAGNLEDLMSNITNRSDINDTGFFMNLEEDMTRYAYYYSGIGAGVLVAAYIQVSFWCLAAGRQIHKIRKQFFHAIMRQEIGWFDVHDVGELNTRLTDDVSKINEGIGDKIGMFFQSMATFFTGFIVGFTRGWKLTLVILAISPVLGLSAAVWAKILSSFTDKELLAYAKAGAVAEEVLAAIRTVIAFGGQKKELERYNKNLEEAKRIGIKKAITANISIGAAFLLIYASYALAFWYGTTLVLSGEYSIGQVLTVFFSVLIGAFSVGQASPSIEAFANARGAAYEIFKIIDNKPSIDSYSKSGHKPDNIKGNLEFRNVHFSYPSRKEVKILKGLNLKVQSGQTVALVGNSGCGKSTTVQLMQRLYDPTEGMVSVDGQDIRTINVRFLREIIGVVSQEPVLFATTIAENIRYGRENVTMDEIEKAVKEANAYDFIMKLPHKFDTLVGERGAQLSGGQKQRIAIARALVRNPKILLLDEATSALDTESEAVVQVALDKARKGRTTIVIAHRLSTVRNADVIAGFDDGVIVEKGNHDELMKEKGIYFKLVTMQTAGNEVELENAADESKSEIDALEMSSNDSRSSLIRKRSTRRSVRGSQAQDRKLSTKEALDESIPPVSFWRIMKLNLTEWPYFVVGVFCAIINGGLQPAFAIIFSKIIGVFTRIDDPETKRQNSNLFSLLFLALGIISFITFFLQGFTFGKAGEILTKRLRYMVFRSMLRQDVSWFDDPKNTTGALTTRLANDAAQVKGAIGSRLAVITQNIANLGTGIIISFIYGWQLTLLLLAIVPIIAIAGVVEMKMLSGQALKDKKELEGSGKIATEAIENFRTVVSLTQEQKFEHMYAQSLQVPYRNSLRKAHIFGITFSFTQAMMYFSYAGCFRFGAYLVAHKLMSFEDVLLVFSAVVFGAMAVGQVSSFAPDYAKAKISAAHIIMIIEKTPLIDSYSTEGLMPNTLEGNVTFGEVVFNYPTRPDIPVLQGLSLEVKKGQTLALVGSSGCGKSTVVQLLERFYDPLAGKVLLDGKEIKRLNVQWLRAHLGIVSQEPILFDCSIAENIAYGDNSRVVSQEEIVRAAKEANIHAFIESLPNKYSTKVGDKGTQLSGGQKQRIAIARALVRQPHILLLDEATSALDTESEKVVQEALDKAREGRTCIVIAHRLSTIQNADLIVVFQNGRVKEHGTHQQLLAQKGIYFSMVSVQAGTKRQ
T2 sequence (P20309 whole entry Y149C/A239G): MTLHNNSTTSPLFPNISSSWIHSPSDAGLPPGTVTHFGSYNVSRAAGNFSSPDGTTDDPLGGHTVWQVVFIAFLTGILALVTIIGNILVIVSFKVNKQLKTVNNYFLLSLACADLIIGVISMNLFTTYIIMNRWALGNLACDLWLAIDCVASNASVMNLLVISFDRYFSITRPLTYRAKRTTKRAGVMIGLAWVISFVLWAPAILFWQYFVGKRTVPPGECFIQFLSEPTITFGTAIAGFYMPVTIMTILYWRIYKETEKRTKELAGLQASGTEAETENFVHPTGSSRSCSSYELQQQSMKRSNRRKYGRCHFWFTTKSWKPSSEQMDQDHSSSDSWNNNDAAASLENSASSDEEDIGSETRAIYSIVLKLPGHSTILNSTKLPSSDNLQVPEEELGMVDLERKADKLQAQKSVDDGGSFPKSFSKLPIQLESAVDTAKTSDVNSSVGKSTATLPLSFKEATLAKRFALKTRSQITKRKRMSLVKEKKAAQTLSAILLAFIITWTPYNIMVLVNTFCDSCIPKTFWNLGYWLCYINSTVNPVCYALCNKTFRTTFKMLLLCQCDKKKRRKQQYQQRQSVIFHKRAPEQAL

CCN1CCN(C2=Nc3cc(Cl)ccc3Nc3cccc(F)c32)CC1 [JHU37152, 8-Chloro-11-(4-ethylpiperazin-1-yl)-1-fluoro-5H-dibenzo[b,e][1,4]diazepine]
pEC50 (hM4Di [1]): 9.30
pKi (hM4Di [2]): 8.06
pKi (hM3Dq [3]): 8.74
Locomotor activity, individual animals (Figure 3 Panel G) (hM3Dq [4]; dose 0.01, listed as J52): 94.7443 and 207.479 and 64.3586 and 274.036 and 1667.81 and 1211.25 and 111.862
Locomotor activity, individual animals (Figure 3 Panel G) (hM3Dq [4]; dose 0.1, listed as J52): 1115.35 and 940.001 and 366.654 and 337.558 and 1635.37 and 694.852 and 547.724
hM3Dq-stimulated locomotion (hM3Dq [4]): robust, selective increases in hM3Dq-stimulated locomotion
locomotor activity (WT mice): without any significant locomotor effects
Locomotor activity, individual animals (Figure 3 Panel A) (WT mice; dose 0.01): 95.2897 and 38.5088 and 39.3587 and 61.0726 and 69.3706 and 99.6544 and 90.1854 and 160.23 and 57.4795 and 29.9947 and 33.6903 and 133.302 and 88.2496 and 102.637 and 90.23
Locomotor activity, individual animals (Figure 3 Panel A) (WT mice; dose 0.1): 107.254 and 270.493 and 33.7361 and 22.8384 and 36.807 and 76.5906 and 34.7692 and 97.3133 and 74.027 and 53.9478 and 95.1236 and 125.045 and 39.4044 and 129.319 and 143.965
Locomotor activity, individual animals (Figure 3 Panel A) (WT mice; dose 1): 81.5049 and 96.9074 and 39.4517 and 156.512 and 62.1842 and 92.749 and 79.3711 and 129.761 and 80.0996 and 7.993 and 23.9209 and 25.8105 and 93.4157 and 30.5341 and 90.9279
locomotor activity (hM3Dq [5]): selectively inhibiting locomotor activity
P-gp substrate (P-gp): Neither JHU37152 nor JHU37160 were P-gp substrates
P-gp substrate (P-gp; listed as J52): none of these compounds is a substrate for P-gp
occupancy of striatal DREADDs (striatal DREADDs): 15–20%
in situ [3H]clozapine displacement in brain tissue from WT and D1-DREADD mice (hM3Dq [6]): selective [^3H]clozapine displacement from DREADDs and not from other clozapine-binding sites
affinity at 5-HT receptors relative to clozapine (5-HT receptors): lower affinity than clozapine
locomotor activity (hM4Di [7]): selectively inhibiting locomotor activity
Locomotor activity, individual animals (Figure 3 Panel C) (hM4Di [7]; dose 0.01): 58.5024 and 108.441 and 109.915 and 131.721 and 115.402 and 75.1276 and 118.881 and 108.271 and 41.4007
Locomotor activity, individual animals (Figure 3 Panel C) (hM4Di [7]; dose 0.1): 72.1502 and 118.453 and 147.655 and 108.28 and 115.789 and 27.5857 and 55.2206 and 30.1649 and 43.619
Locomotor activity, individual animals (Figure 3 Panel C) (hM4Di [7]; dose 1): 21.6168 and 115.427 and 110.069 and 108.688 and 73.7541 and 20.9336 and 36.5894 and 6.171 and 23.7054

CCN1CCN(C2=Nc3cc(Cl)ccc3Nc3c(F)cccc32)CC1 [JHU37160, 8-Chloro-11-(4-ethylpiperazin-1-yl)-4-fluoro-5H-dibenzo[b,e][1,4]diazepine]
pEC50 (hM4Di [1]): 9.70
pKi (hM4Di [2]): 8.44
improved affinity compared to C21 (hM4Di [2]): ~ 25 fold
pKi (hM3Dq [3]): 8.72
Locomotor activity, individual animals (Figure 3 Panel G) (hM3Dq [4]; dose 0.01, listed as J60): 279.417 and 1024.06 and 48.7042 and 167.624 and 1237.61 and 111.992 and 663.301
Locomotor activity, individual animals (Figure 3 Panel G) (hM3Dq [4]; dose 0.1, listed as J60): 1035.55 and 900.553 and 68.6081 and 759.611 and 1367.43 and 667.9 and 184.82
hM3Dq-stimulated locomotion (hM3Dq [4]): robust, selective increases in hM3Dq-stimulated locomotion
locomotor activity (WT mice): without any significant locomotor effects
Locomotor activity, individual animals (Figure 3 Panel A) (WT mice; dose 0.01): 15.4443 and 132.603 and 147.829 and 129.309 and 75.7603 and 45.5126 and 63.7894 and 145.958 and 96.1391 and 10.074 and 65.3531 and 48.0503 and 10.0356 and 25.3389 and 152.354 and 157.609 and 175.04
Locomotor activity, individual animals (Figure 3 Panel A) (WT mice; dose 0.1): 28.3765 and 136.794 and 39.0145 and 128.13 and 27.5178 and 138.037 and 95.0881 and 162.364 and 107.636 and 24.3135 and 117.274 and 117.261 and 37.3098 and 136.435 and 99.1126 and 117.312 and 123.413
Locomotor activity, individual animals (Figure 3 Panel A) (WT mice; dose 1): 10.497 and 121.35 and 79.3619 and 104.303 and 59.97 and 24.8262 and 41.2959 and 159.16 and 61.4696 and 5.601 and 141.242 and 63.7125 and 17.4822 and 64.5071 and 75.0041 and 144.933 and 145.945
locomotor activity (hM3Dq [5]): selectively inhibiting locomotor activity
P-gp substrate (P-gp): Neither JHU37152 nor JHU37160 were P-gp substrates
P-gp substrate (P-gp; listed as J60): none of these compounds is a substrate for P-gp
occupancy of striatal DREADDs (striatal DREADDs): 15–20%
in situ [3H]clozapine displacement in brain tissue from WT and D1-DREADD mice (hM3Dq [6]): selective [^3H]clozapine displacement from DREADDs and not from other clozapine-binding sites
affinity at 5-HT receptors relative to clozapine (5-HT receptors): lower affinity than clozapine
locomotor activity (hM4Di [7]): selectively inhibiting locomotor activity
Locomotor activity, individual animals (Figure 3 Panel C) (hM4Di [7]; dose 0.01): 87.297 and 55.7522 and 80.3935 and 127.49 and 164.341 and 150.985 and 118.596 and 28.6623 and 109.457 and 25.9025 and 156.84
Locomotor activity, individual animals (Figure 3 Panel C) (hM4Di [7]; dose 0.1): 22.2583 and 26.4102 and 36.6386 and 50.3064 and 38.3173 and 43.9761 and 103.495 and 48.2345 and 24.5922 and 6.944 and 42.5594
Locomotor activity, individual animals (Figure 3 Panel C) (hM4Di [7]; dose 1): 71.4509 and 37.5721 and 8.672 and 75.5783 and 18.1309 and 89.8357 and 75.9222 and 7.305 and 23.6013 and 9.934 and 15.3384
